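Assay format: 96-well plates, 48-hour exposure. TGI denotes the concentration required for complete inhibition of growth.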 Peptide text beside a SMILES is read from it. * marks the point of attachment. Cbz = O=C(OCc1ccccc1)*
Key:
Test in all cases: growth of human tumour cells (NCI), 48 h
[1] = tested on: SNB-19 CNS
[2] = tested on: HT29 colon
[3] = tested on: NCI-H460 lung
[4] = tested on: A549 NSCLC
[5] = tested on: MALME-3M melanoma
[6] = tested on: MOLT-4 leukemia
[7] = tested on: SF-539 CNS
[8] = tested on: U251 CNS
[9] = tested on: M14 melanoma
[10] = tested on: LOX IMVI melanoma
[11] = tested on: SW-620 colon
[12] = tested on: MCF7 breast
[13] = tested on: SK-MEL-2 melanoma
[14] = tested on: KM12 colon
[15] = tested on: SK-OV-3 ovarian
[16] = tested on: NCI-H23 lung
[17] = tested on: K-562 leukemia
[18] = tested on: SK-MEL-5 melanoma

CCC12CN(C(=O)OC)C3C(Br)C1CCC(=O)C32 (stereo not drawn) showed a TGI [1] greater than 100 µM, a TGI [2] greater than 100 µM and a TGI [3] greater than 100 µM. For the same molecule, the TGI [4] was greater than 100 µM, the TGI [5] was greater than 100 µM and the TGI [6] was greater than 100 µM. It also gave a TGI [7] greater than 100 µM, a TGI [8] greater than 100 µM and a TGI [9] greater than 100 µM. The TGI [10] was greater than 100 µM, the TGI [11] was greater than 100 µM and the TGI [12] was greater than 100 µM. The TGI [13] was greater than 100 µM, the TGI [14] was greater than 100 µM and the TGI [15] was greater than 100 µM. The TGI [16] was greater than 100 µM, the TGI [17] was greater than 100 µM and the TGI [18] was greater than 100 µM.
Work on CC(C)C1COC(C(C)(C)C2=N[C@@H](C(C)C)CO2)=N1 (stereo partly drawn) yielded a TGI [1] greater than 100 µM, a TGI [2] greater than 100 µM and a TGI [3] greater than 100 µM. For the same molecule, the TGI [4] was greater than 100 µM, the TGI [5] was greater than 100 µM and the TGI [6] was greater than 100 µM. For the same molecule, the TGI [7] was greater than 100 µM, the TGI [8] was greater than 100 µM and the TGI [9] was greater than 100 µM. The TGI [10] was greater than 100 µM, the TGI [11] was greater than 100 µM and the TGI [13] was greater than 100 µM. For the same molecule, the TGI [14] was greater than 100 µM, the TGI [15] was greater than 100 µM and the TGI [16] was greater than 100 µM. It also gave a TGI [17] greater than 100 µM and a TGI [18] greater than 100 µM.
Work on CCOC(=O)CCC(NC(=O)CNC(=O)CNC(=O)C(CCC(=O)OCC)NC(=O)C(CCC(=O)OCC)NC(=O)C(CCC(=O)OCC)NC(=O)OCc1ccccc1)C(=O)NC(CCC(=O)OCC)C(=O)NC(CCC(=O)OCC)C(=O)OCC (stereo not drawn) (Cbz-E(OEt)E(OEt)E(OEt)GGE(OEt)E(OEt)E(OEt)-OEt; configuration not given here) yielded a TGI [1] greater than 75 µM, a TGI [2] greater than 75 µM and a TGI [3] greater than 75 µM. For the same molecule, the TGI [4] was greater than 75 µM, the TGI [5] was greater than 75 µM and the TGI [6] was greater than 75 µM. The TGI [8] was greater than 75 µM, the TGI [9] was greater than 75 µM and the TGI [10] was greater than 75 µM. The TGI [11] was greater than 75 µM, the TGI [12] was greater than 75 µM and the TGI [13] was greater than 75 µM. The TGI [14] was greater than 75 µM, the TGI [15] was greater than 75 µM and the TGI [16] was greater than 75 µM. For the same molecule, the TGI [18] was greater than 75 µM.
In the case of OCCCN=C1N=C(Cl)/C(=C\c2ccccc2)N1, the TGI [1] is reported as greater than 100 µM, the TGI [2] is reported as greater than 100 µM and the TGI [4] is reported as greater than 100 µM. It also gave a TGI [5] greater than 100 µM, a TGI [6] greater than 100 µM and a TGI [7] greater than 100 µM. It also gave a TGI [8] greater than 100 µM, a TGI [9] greater than 100 µM and a TGI [10] greater than 100 µM. It also gave a TGI [11] greater than 100 µM, a TGI [12] greater than 100 µM and a TGI [14] greater than 100 µM. It also gave a TGI [15] greater than 100 µM, a TGI [16] greater than 100 µM and a TGI [17] greater than 100 µM. It also gave a TGI [18] greater than 100 µM.
CN(C)c1cccc2c(S(=O)(=O)NCCCNCCN)cccc12 gave a TGI [1] greater than 100 µM, a TGI [2] greater than 100 µM and a TGI [3] greater than 100 µM. It also gave a TGI [4] greater than 100 µM, a TGI [5] greater than 100 µM and a TGI [6] of 41.1 µM. It also gave a TGI [7] of 49.7 µM, a TGI [8] greater than 100 µM and a TGI [9] of 33.9 µM. It also gave a TGI [10] greater than 100 µM, a TGI [11] greater than 100 µM and a TGI [13] of 86.7 µM. The TGI [14] was greater than 100 µM, the TGI [15] was greater than 100 µM and the TGI [16] was greater than 100 µM. It also gave a TGI [17] of 43.1 µM and a TGI [18] of 35.7 µM.
O=[N+]([O-])c1ccc2nc(/C=C(\O)c3ccccc3)c(NC34CC5CC(CC(C5)C3)C4)nc2c1 gave a TGI [2] greater than 10 µM, a TGI [3] greater than 10 µM and a TGI [5] greater than 10 µM. For the same molecule, the TGI [7] was greater than 10 µM, the TGI [8] was greater than 10 µM and the TGI [9] was greater than 10 µM. It also gave a TGI [10] greater than 10 µM, a TGI [11] greater than 10 µM and a TGI [12] greater than 10 µM. For the same molecule, the TGI [13] was greater than 10 µM, the TGI [14] was greater than 10 µM and the TGI [15] was greater than 10 µM. For the same molecule, the TGI [16] was greater than 10 µM and the TGI [18] was greater than 10 µM.
CC1(C)OC2C(O1)[C@H]1OC(C(Cl)(Cl)Cl)=N[C@H]1C(I)[C@H]2N1C(=O)c2ccccc2C1=O (stereo partly drawn) showed a TGI [1] greater than 100 µM, a TGI [2] greater than 100 µM and a TGI [3] greater than 100 µM. For the same molecule, the TGI [4] was 97.5 µM, the TGI [6] was 58.3 µM and the TGI [7] was greater than 100 µM. For the same molecule, the TGI [8] was greater than 100 µM, the TGI [9] was greater than 100 µM and the TGI [10] was greater than 100 µM. For the same molecule, the TGI [11] was greater than 100 µM, the TGI [14] was greater than 100 µM and the TGI [16] was greater than 100 µM. For the same molecule, the TGI [17] was greater than 100 µM and the TGI [18] was greater than 100 µM.
Work on O=C1NC(=O)C23C(=O)NC(=O)C12C1C=CC3CC1 (stereo not drawn) yielded a TGI [1] greater than 10 µM, a TGI [2] greater than 10 µM and a TGI [3] greater than 10 µM. It also gave a TGI [4] greater than 10 µM, a TGI [5] greater than 10 µM and a TGI [6] greater than 10 µM. It also gave a TGI [7] greater than 10 µM, a TGI [8] greater than 10 µM and a TGI [9] greater than 10 µM. The TGI [10] was greater than 10 µM, the TGI [11] was greater than 10 µM and the TGI [12] was greater than 10 µM. For the same molecule, the TGI [13] was greater than 10 µM, the TGI [14] was greater than 10 µM and the TGI [15] was greater than 10 µM. The TGI [16] was greater than 10 µM, the TGI [17] was greater than 10 µM and the TGI [18] was greater than 10 µM.
With NC(=S)N/N=C(/CCN1CCCC1)CC(C1=C(O)C2=CCCCC2OC1=O)c1ccccc1 (stereo not drawn) the TGI [1] was greater than 100 µM, the TGI [2] was greater than 100 µM and the TGI [3] was greater than 100 µM. The TGI [4] was greater than 100 µM, the TGI [5] was greater than 100 µM and the TGI [7] was greater than 100 µM. The TGI [8] was greater than 100 µM, the TGI [9] was greater than 100 µM and the TGI [10] was greater than 100 µM. For the same molecule, the TGI [11] was greater than 100 µM, the TGI [13] was greater than 100 µM and the TGI [14] was greater than 100 µM. The TGI [15] was greater than 100 µM, the TGI [16] was greater than 100 µM and the TGI [17] was greater than 100 µM. The TGI [18] was greater than 100 µM.
In the case of CCOC(=O)c1nc2ccc(C(F)(F)F)cc2nc1NCc1ccc(F)cc1, the TGI [1] is reported as greater than 100 µM, the TGI [2] is reported as greater than 100 µM and the TGI [3] is reported as 75.4 µM. The TGI [4] was greater than 100 µM, the TGI [5] was greater than 100 µM and the TGI [6] was greater than 100 µM. For the same molecule, the TGI [7] was greater than 100 µM, the TGI [8] was greater than 100 µM and the TGI [9] was greater than 100 µM. It also gave a TGI [10] greater than 100 µM, a TGI [11] greater than 100 µM and a TGI [12] greater than 100 µM. It also gave a TGI [13] greater than 100 µM, a TGI [14] greater than 100 µM and a TGI [15] greater than 100 µM. For the same molecule, the TGI [16] was greater than 100 µM and the TGI [17] was greater than 100 µM.
In the case of COc1cc(CO)cc2c1[nH]c1ccccc12, the TGI [1] is reported as greater than 25 µM, the TGI [2] is reported as greater than 25 µM and the TGI [3] is reported as greater than 25 µM. The TGI [4] was greater than 25 µM, the TGI [5] was greater than 25 µM and the TGI [6] was greater than 25 µM. The TGI [7] was greater than 25 µM, the TGI [8] was greater than 25 µM and the TGI [9] was greater than 25 µM. The TGI [10] was greater than 25 µM, the TGI [11] was greater than 25 µM and the TGI [13] was greater than 25 µM. For the same molecule, the TGI [14] was greater than 25 µM, the TGI [15] was greater than 25 µM and the TGI [17] was greater than 25 µM. The TGI [18] was greater than 25 µM.
For CN1C(CC(O)c2ccccc2)CCCC1CC(O)(c1ccccc1)c1ccccc1 (stereo not drawn), the TGI [1] was 36.3 µM, the TGI [2] was 31.8 µM and the TGI [4] was 50 µM. For the same molecule, the TGI [5] was 33.8 µM, the TGI [6] was 54.9 µM and the TGI [7] was 27.3 µM. It also gave a TGI [8] of 28.4 µM, a TGI [9] of 34.9 µM and a TGI [10] of 41.5 µM. For the same molecule, the TGI [11] was 39 µM, the TGI [12] was 43.4 µM and the TGI [14] was 36.6 µM. For the same molecule, the TGI [15] was 38.8 µM, the TGI [16] was 35.8 µM and the TGI [17] was 94.8 µM. The TGI [18] was 31 µM.
Molecule COC(=O)[C@H]1C2CC[C@@H]3C45C[C@@H](c6ccoc6)O[C@@H]4O[C@@H](O2)C31CCC5C (stereo partly drawn) has a TGI [1] greater than 100 µM, a TGI [2] greater than 100 µM and a TGI [3] greater than 100 µM. The TGI [4] was greater than 100 µM, the TGI [5] was greater than 100 µM and the TGI [6] was greater than 100 µM. It also gave a TGI [7] greater than 100 µM, a TGI [8] greater than 100 µM and a TGI [9] greater than 100 µM. It also gave a TGI [10] greater than 100 µM, a TGI [11] greater than 100 µM and a TGI [13] greater than 100 µM. For the same molecule, the TGI [14] was greater than 100 µM, the TGI [15] was greater than 100 µM and the TGI [16] was greater than 100 µM. For the same molecule, the TGI [17] was greater than 100 µM and the TGI [18] was greater than 100 µM.
O[C@]12c3ccccc3C1CCCC2N1CCOCC1 (stereo partly drawn) was tested, and the TGI [1] was greater than 100 µM, the TGI [2] was greater than 100 µM and the TGI [3] was greater than 100 µM. It also gave a TGI [4] greater than 100 µM, a TGI [5] greater than 100 µM and a TGI [6] greater than 100 µM. It also gave a TGI [8] greater than 100 µM, a TGI [9] greater than 100 µM and a TGI [10] greater than 100 µM. The TGI [11] was greater than 100 µM, the TGI [13] was greater than 100 µM and the TGI [14] was greater than 100 µM. It also gave a TGI [15] greater than 100 µM, a TGI [16] greater than 100 µM and a TGI [17] greater than 100 µM. The TGI [18] was greater than 100 µM.

Source: PubChem BioAssay (NCI)
